Experimental data taken from US5686102A, “Pharmacological composition for topical administration” (Lancaster Group AG, priority 1992, dated 1997).
Where two headings read alike, the source gives them in different places.

Key:
[1] = Critical solubility temperature (CST) in n-hexane
Source text: FIG. 1 is a diagram of the critical solubility temperatures (CST) of perfluorocarbon mixtures in n-hexane using perfluorodecalin as a starting point
FIG. 2 is a diagram of the critical solubility temperatures of perfluorocarbon mixtures in n-hexane using F-octylbromide as a starting point.

[2] = O2 solubility of fluorocarbons; type: physicochemical
[3] = Vapour pressure of fluorocarbons at 37° C.; type: physicochemical
[4] = Penetration into skin and residence time/release of labelled encapsulated fluorocarbons, animal experiments; type: in vivo
Source text: By means of separate investigations, it was possible to determine the dependence of the penetration rates and the depth of penetration on the particle size of the aggregates experimentally in animal experiments using labelled encapsulated fluorocarbons. […] The choice of fluorocarbons or mixtures thereof according to their lipid solubility (represented by their critical solubility temperature CST in n-hexane) permits, as a further important criterion, the control of the residence time in the tissue. […] With the aid of fluorocarbon mixtures, in this way systems having desired CST values, i.e. lipid and membrane solubilities, with respect to the intended use can be prepared in a controlled manner.

[5] = critical solubility temperature in n-hexane

CST [1] [°C]	SMILES	CST [1, 5] [°C]	further results
–	FC(F)(F)C(F)(F)C(F)(F)C(F)(F)C=CC(F)(F)C(F)(F)C(F)(F)C(F)(F)F [Bis-F(butyl)ethene, bis-F(butyl)ethene]	22.5	–
–	FC1(F)OC(F)(F)C(F)(F)N(C(F)(F)C2(F)C(F)(F)C(F)(F)C(F)(F)C(F)(F)C2(F)F)C1(F)F [F-cyclohexylmethylmorpholine]	38.5	O2 solubility [2]: 42 ml of O2 /100 ml of Fc; Vapour Pressure [3]: 4 mm Hg
–	FC(F)(F)C(F)(F)C(F)(F)C(F)(F)C(F)(F)C(F)(F)OC(F)(F)C(F)(F)C(F)(F)C(F)(F)C(F)(F)C(F)(F)F [F-dihexyl ether]	59	–
–	FC(F)(F)C(F)(F)C(F)(F)C(F)(F)C(F)(F)C(F)(F)F [F-hexane, perfluorohexane]	–	release from the tissue ([4]; in vivo): released correspondingly more rapidly from the tissue
–	FC(F)(F)C1(F)C(F)(F)C(F)(F)C(F)(F)C(F)(F)C1(F)F [F-methylcyclohexane, perfluoromethylcyclohexane]	8.2	–
–	FC(F)(F)C(F)(F)C(F)(F)C(F)(F)N(C(F)(F)C(F)(F)C(F)(F)C(F)(F)F)C(F)(F)C(F)(F)C(F)(F)C(F)(F)F [F-tributylamine, perfluorotributylamine]	59	residence time in the tissue ([4]; in words, related to CST / lipid solubility): relatively large residence time
43	FC(F)(F)C(F)(F)C(F)(F)N(C(F)(F)C(F)(F)C(F)(F)F)C(F)(F)C(F)(F)C(F)(F)F [F-tripropylamine]	–	–
–	FC(F)(F)C(F)(F)C(F)(F)C(F)(F)C1(F)OC(F)(F)C(F)(F)C1(F)F (centres unmarked) [Perfluorobutyltetrahydrofuran, perfluorobutyltetrahydrofuran]	29	O2 solubility [2]: 52 ml of O2 /100 ml of Fc; Vapour Pressure [3]: 51 mm Hg; release from the tissue ([4]; in words, compared with perfluorotributylamine): released correspondingly more rapidly from the tissue
22	FC1(F)C(F)(F)C(F)(F)C2(F)C(F)(F)C(F)(F)C(F)(F)C(F)(F)C2(F)C1(F)F (centres unmarked) [Perfluorodecalin, perfluorodecalin]	–	release from the tissue ([4]; in vivo): released correspondingly more rapidly from the tissue
-24.5	FC(F)(F)C(F)(F)C(F)(F)C(F)(F)C(F)(F)C(F)(F)C(F)(F)C(F)(F)Br [Perfluorooctyl bromide, perfluorooctyl bromide]	–	–
